In ChEMBL document CHEMBL1138234, “Planarity and constraint of the carbonyl groups in 1,2-diones are determinants for selective inhibition of human carboxylesterase 1” (J Med Chem, 2007) one finds Ki data, which are given here for 19 molecules.

A value given as a limit tells only on which side of the number the result lay.

One assay addresses Acetylcholinesterase (Homo sapiens, UniProt P22303). The experiment in a line: Inhibition of human acetylcholinesterase 1.
The next assay addresses Cholinesterase (Homo sapiens, UniProt P06276). The experiment in a line: Inhibition of human butyrylcholinesterase.
Another assay concerns the target T1, Liver carboxylesterase 1 (Homo sapiens, UniProt P23141).
T1 sequence (P23141 whole entry): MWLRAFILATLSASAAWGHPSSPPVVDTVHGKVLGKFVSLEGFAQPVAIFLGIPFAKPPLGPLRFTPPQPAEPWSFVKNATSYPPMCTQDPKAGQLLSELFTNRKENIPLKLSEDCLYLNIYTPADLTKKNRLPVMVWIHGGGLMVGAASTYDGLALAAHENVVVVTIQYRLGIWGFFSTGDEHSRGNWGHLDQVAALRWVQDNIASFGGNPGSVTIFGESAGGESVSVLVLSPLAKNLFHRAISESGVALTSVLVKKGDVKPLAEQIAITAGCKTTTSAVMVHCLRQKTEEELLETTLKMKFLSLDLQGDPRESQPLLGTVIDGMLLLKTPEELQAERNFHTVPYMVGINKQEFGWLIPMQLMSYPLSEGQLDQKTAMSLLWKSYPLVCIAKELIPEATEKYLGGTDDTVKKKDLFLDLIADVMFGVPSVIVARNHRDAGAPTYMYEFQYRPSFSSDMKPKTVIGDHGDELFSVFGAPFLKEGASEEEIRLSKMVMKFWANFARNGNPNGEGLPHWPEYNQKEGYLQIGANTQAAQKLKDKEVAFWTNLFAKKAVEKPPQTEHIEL
Description: Inhibition of human carboxylesterase 1.

Assay [1] is described as follows: Inhibition of human intestinal carboxylesterase.

Cholinesterase, sequence (P06276 whole entry): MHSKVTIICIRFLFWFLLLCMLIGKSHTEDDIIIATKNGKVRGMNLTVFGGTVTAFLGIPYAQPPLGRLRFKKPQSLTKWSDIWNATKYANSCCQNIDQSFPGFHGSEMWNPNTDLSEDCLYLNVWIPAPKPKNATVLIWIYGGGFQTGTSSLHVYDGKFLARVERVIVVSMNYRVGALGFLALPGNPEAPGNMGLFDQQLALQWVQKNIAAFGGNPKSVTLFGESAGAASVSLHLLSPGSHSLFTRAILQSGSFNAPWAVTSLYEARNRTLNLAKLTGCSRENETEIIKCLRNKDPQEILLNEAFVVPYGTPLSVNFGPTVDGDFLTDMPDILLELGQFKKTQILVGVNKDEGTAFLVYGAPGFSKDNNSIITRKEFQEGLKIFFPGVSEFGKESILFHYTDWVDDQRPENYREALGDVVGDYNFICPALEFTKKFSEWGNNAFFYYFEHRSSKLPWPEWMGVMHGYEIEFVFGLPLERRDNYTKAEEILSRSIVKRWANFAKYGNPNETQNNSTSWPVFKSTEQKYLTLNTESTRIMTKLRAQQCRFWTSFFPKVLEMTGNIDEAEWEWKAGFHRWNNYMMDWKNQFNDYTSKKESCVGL
Acetylcholinesterase, sequence (P22303 whole entry): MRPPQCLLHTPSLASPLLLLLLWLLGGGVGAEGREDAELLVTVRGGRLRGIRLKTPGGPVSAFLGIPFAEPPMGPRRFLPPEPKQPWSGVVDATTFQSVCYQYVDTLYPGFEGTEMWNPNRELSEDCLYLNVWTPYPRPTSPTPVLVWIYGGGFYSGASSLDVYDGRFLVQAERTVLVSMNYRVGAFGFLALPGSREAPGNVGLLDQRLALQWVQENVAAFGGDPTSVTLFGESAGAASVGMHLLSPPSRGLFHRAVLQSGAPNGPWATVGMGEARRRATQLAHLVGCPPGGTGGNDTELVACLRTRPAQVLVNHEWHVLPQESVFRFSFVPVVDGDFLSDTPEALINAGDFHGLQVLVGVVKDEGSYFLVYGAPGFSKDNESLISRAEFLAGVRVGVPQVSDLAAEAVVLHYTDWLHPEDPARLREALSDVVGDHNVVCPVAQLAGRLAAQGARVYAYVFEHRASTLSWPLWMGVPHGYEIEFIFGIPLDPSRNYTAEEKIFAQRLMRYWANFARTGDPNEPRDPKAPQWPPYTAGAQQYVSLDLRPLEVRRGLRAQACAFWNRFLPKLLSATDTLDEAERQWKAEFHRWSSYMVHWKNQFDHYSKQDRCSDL

For `O=C1C(=O)c2ccccc2-c2ccccc21` [9,10-PHENANTHRENEQUINONE], the Ki at Acetylcholinesterase was > 100 µM; on Cholinesterase, 0.19 µM; on Liver carboxylesterase 1, 0.0025 µM.

For the molecule `Cc1cc(C)c(C(=O)C(=O)c2c(C)cc(C)cc2C)c(C)c1`, the Ki at Acetylcholinesterase was > 100 µM; on Cholinesterase it was > 100 µM; in assay [1], 4.04 µM; at Liver carboxylesterase 1 it was > 100 µM.

Regarding `COc1ccccc1C(=O)C(=O)c1ccccc1OC`, the Ki (on Cholinesterase; in assay [1]; on Liver carboxylesterase 1) was > 100 µM throughout.

Take `O=C1C=Cc2ccccc2C1=O` [1,2-NAPHTHOQUINONE]: the Ki came out at 0.32 µM on Acetylcholinesterase, 2.29 µM at Cholinesterase, 2.4 µM in assay [1] and 0.93 µM at Liver carboxylesterase 1.

Regarding `CCOc1ccc(C(=O)C(=O)c2ccc(OCC)cc2)cc1`, the Ki on Acetylcholinesterase was > 100 µM; at Cholinesterase, > 100 µM; in assay [1], 1.42 µM; on Liver carboxylesterase 1, > 100 µM.

Turning to `CC1(C)[C@@H]2CC[C@]1(C)C(=O)C2=O` (racemic), the Ki (at Acetylcholinesterase; on Cholinesterase; in assay [1]; on Liver carboxylesterase 1) was > 100 µM each time.

Regarding `O=C1Cc2ccccc2C1=O`, the Ki at Acetylcholinesterase is > 100 µM; on Cholinesterase, 2.63 µM; in assay [1] it was 5.47 µM; on Liver carboxylesterase 1, 5.24 µM.

For `O=C(C(=O)C1CCCCC1)C1CCCCC1`, the Ki at Acetylcholinesterase is > 100 µM; on Cholinesterase, > 100 µM; in assay [1], 0.005 µM; at Liver carboxylesterase 1, 0.072 µM.

With `O=C1C(=O)c2c3ccccc3cc3cccc1c23`, the inhibitory constant (Ki) at Acetylcholinesterase is > 100 µM; on Cholinesterase, > 100 µM; in assay [1], 0.0077 µM; on Liver carboxylesterase 1, 0.0015 µM.

For `O=C1C(=O)c2cccnc2-c2ncccc21`, the Ki at Acetylcholinesterase was > 100 µM; at Cholinesterase it was > 100 µM; in assay [1], > 100 µM; on Liver carboxylesterase 1 it was 5.4 µM.

Regarding `O=C1C(=O)c2cccc3c2N(CCC3)C1=O`, the Ki was > 100 µM on Acetylcholinesterase, > 100 µM on Cholinesterase, > 100 µM in assay [1] and 5.38 µM at Liver carboxylesterase 1.

Turning to `O=C(C(=O)c1ccc([N+](=O)[O-])cc1)c1ccc([N+](=O)[O-])cc1`, the Ki on Acetylcholinesterase is > 100 µM; at Cholinesterase it was > 100 µM; in assay [1], 0.47 µM; at Liver carboxylesterase 1, 9.8 µM.

For the molecule `O=C1C(=O)c2sccc2-c2ccsc21`, the Ki at Acetylcholinesterase is > 100 µM; at Cholinesterase, > 100 µM; in assay [1], 0.85 µM; at Liver carboxylesterase 1, 0.15 µM.

Regarding `O=C1C(=O)c2cc([N+](=O)[O-])ccc2-c2ccccc21`, the Ki on Acetylcholinesterase was 0.85 µM; on Cholinesterase it was 1.67 µM; in assay [1], 0.107 µM; on Liver carboxylesterase 1, 0.0159 µM.

For the molecule `O=C1C(=O)c2ccccc2CCc2ccccc21`, the Ki on Acetylcholinesterase was > 100 µM; on Cholinesterase it was > 100 µM; in assay [1], 6.15 µM; on Liver carboxylesterase 1, 2.98 µM.

For the molecule `O=C1C(=O)c2cccc3cccc1c23` [ACENAPHTHOQUINONE], the Ki on Acetylcholinesterase was > 100 µM; on Cholinesterase it was 2.97 µM; on Liver carboxylesterase 1, 0.031 µM.

`O=C1C(=O)c2ccc([N+](=O)[O-])c3c([N+](=O)[O-])ccc1c23`: the Ki on Acetylcholinesterase was 0.903 µM; at Cholinesterase it was 3.1 µM; in assay [1], 0.62 µM; on Liver carboxylesterase 1 it was 0.57 µM.

Take `O=C1C(=O)N2CCCc3cccc1c32`: the Ki on Acetylcholinesterase was > 100 µM; on Cholinesterase, > 100 µM; in assay [1], 4.13 µM; at Liver carboxylesterase 1 it was 1.54 µM.

For the molecule `COc1ccc(C(=O)C(=O)c2ccc(C(=O)O)cc2)cc1`, the Ki on Acetylcholinesterase and on Cholinesterase was > 100 µM throughout.

Usually Ki stands for the equilibrium dissociation constant of an inhibitor or competing ligand from its target. A lower Ki goes with tighter binding.
